Data published in patent US4946858A, “Novel spirosuccinimides as aldose reductase inhibitors and antihyperglycemic agents” (American Home Products Corporation, priority 1989, dated 1990).
Where two headings read alike, the source gives them in different places.

Tests used:
[1] = system: hyperglycemia and hyperinsulinemia; details: Fujita et al, Diabetes, 32, 804 (1983); cited from earlier work
diabetic (db/db) mice = assay: Blood glucose lowering activity in diabetic (db/db) mice; format: in vivo, mouse (db/db, C57BL/KsJ); details: for change in vivo at 100 mg/kg: Mus musculus, po, 96 h, 100 mg/kg/day p.o. (gavage), read-out: % Change from vehicle (plasma glucose)
Source text: The blood glucose lowering activity of the compounds of this invention were demonstrable in experiments using diabetic (db/db) mice. […] The animals are obese, glucose intolerant and have fasting hyperglycemia which is sometimes accompanied by a paradoxical hyperinsulinemia. Furthermore, the db/db mouse will eventually develop some of the long-term complications that have been associated with diabetes mellitus. [See Coleman Diabetes, 31 (Suppl. 1), 1 (1982)]. In spite of these commonalities, the acute administration of sulfonylureas (even at extremely high dosages) will not reduce the hyperglycemia of the db/db mouse. [See Tutwiler et al, Diabetes 27, 856 (1978)]. […] On the morning of Day 1, 35 mice [male db/db (C57BL/KsJ), Jackson Laboratories, 2 to 7 months of age and body weight 35 to 60 g] were fasted for 4 hours, weighted and a baseline blood sample was collected from the tail-tip of each mouse without anesthesia, placed directly into a fluoride-containing tube, mixed and maintained on ice. Food was then returned to the mice. The plasma was separated and levels of glucose in plasma determined by the Abbott VP Analyzer. Because of the variable plasma glucose levels of the db/db mice, 5 mice having the most extreme (i.e., highest or lowest) plasma glucose levels were excluded and the remaining 30 mice were randomly assigned into […] of equivalent means plasma glucose levels: On the afternoon of Days 1, 2 and 3 the vehicle, control or test drugs were administered (p.o.) to the ad libitum fed mice. […] The test compounds were given by gavage at a dose of 100 mg/kg/day unless otherwise noted in Table 3. On the morning of Day 4, the mice were weighted and fasted, but water was available ad libitum. Three hours later, a blood sample was collected and then the mice were given the fourth administration of drug or vehicle. Blood samples were collected again from the unanesthetized mice at 2 and 4 hours after drug administration. The plasma was separated and levels of glucose in plasma determined by the Abbott VP Analyzer. For each mouse, the percent change of it's plasma glucose level on Day 4 (mean of the 2 and 4 hour samples) from it's respective level before drug administration (Day 1 baseline sample) was determined as follows: [formula] Analysis of variance followed by Dunnett's multiple comparison (one-sided) was used to estimate the degree of statistical significance of the difference between the vehicle group and the individual drug-treated groups. A drug was considered active, at the specific dosage administered,if the difference of the plasma glucose level has a p<0.05.

galactosemic rats = assay: Lowering of galactitol (dulcitol) accumulation in tissues of galactosemic rats; format: in vivo, rat (Sprague-Dawley); details: 4 days, vs untreated galactosemic rats
Source text: The aldose reductase inhibiting property of the compounds of this invention and the utilization of the compounds in preventing, diminishing and alleviating diabetic complications by lowering polyol accumulation were also demonstrable in experiments using galactosemic rats, see Dvornik et al, Science, 182, 1146 (1973). Such experiments are exemplified hereinbelow after the listing of the following general comments pertaining to these experiments:
(a) Four or more groups of six male rats, 50-70 g, Sprague-Dawley strain, were used. The first group, the control group, was fed a mixture of laboratory chow (rodent Laboratory Chow, Purina) and glucose at 20% (w/w %) concentration. The untreated galactosemic group and the drug-treated groups were fed a similar diet in which galactose is substituted for glucose. The test compound was either admixed to the diet or administered by gavage. In experiments involving compound administration in the diet, the average dose administered was calculated from the actual food intake of the animals in each group. The concentration of galactose in the diet of the treated groups was the same as that for the untreated galactosemic groups.
(b) After four days, the amimals were killed by decapitation. The eyeballs were removed and punctured with a razor blade; the freed lenses were rolled gently on filter paper and weighed. The sciatic nerves were dissected as completely as possible and weighed. Both tissues when frozen can be kept up to two weeks before being analyzed for galactitol.
(c) The polyol determination was performed by a modification of the procedure of M. Kraml and L. Cosyns, Clin. Biochem., 2, 373 (1969). Only two minor reagent changes were made: (a) the rinsing mixture was an aqueous 5% (w/v) trichloroacetic acid solution and (b) the stock solution was prepared by dissolving 25 mg of dulcitol in 100 mL of an aqueous trichloroacetic acid solution. [N.B.: For each experiment the average value found in the tissue from rats fed the glucose diet was subtracted from the individual values found in the corresponding tissue in galactose-fed rats to obtain the amount of polyol accumulated.]
The figures under L, N, and D represent the percentage decrease of galactitol accumulation in the tissues of the lens, sciatic nerve, and diaphragm, respectively, for treated rats as compared to untreated rats.

aldose reductase = biological target: T1, aldose reductase (Bos taurus, UniProt P16116); assay: In vitro inhibition of aldose reductase (modified Hayman and Kinoshita procedure, enzyme from bovine lens); format: biochemical; details: read-out: % Inhibition in Vitro; for inhibition at 1 µM: 10^-6 M
T1 construct: preparation of the enzyme from bovine lens; from tissue; host or cells: bovine lens
Source text: In the present case the procedure of Hayman and Kinoshita was modified in that the final chromatography step was omitted in the preparation of the enzyme from bovine lens.

[2] = Day 4 mean of 2 and 4 hour samples vs Day 1 baseline, difference from vehicle

Row | inhibition at 10 µM (aldose reductase; 10^-5 M) | inhibition at 1 µM (aldose reductase) | Structure (SMILES) | change in vivo at 100 mg/kg (diabetic (db/db) mice; [2]) | other results
1 | – | – | CC1(COc2ccc(CC3SC(=O)NC3=O)cc2)CCCCC1 (racemic) [Ciglitazone, (±)-5-[4-[(1-methylcyclohexyl)methoxy]benzyl]-thiazolidine-2,4-dione, reference compound] | -33% | effect on hyperglycemia and hyperinsulinemia [1]: normalizes these parameters
2 | 52% | 3% | O=C1CC2(C(=O)N1)c1ccccc1S(=O)(=O)N2Cc1ccc(Br)cc1F (centres unmarked) [Example 104, 2-[(4-bromo-2-fluorophenyl)methyl]-2,3-dihydrospiro[1,2-benzisothiazole-3,3'-pyrrolidine]-2',5'-dione 1,1-dioxide] | -48% | % Lowering of dulcitol accumulation In Vivo, % L (lens) (galactosemic rats; 104 mg/kg): 13%; comparison with ciglitazone, blood glucose lowering (diabetic (db/db) mice; 100 mg/kg, db/db mice): gives comparable results to ciglitazone at 100 mg/kg
3 | 63% | 16% | O=C1CC2(C(=O)N1)c1ccccc1S(=O)(=O)N2Cc1ccc(Cl)c(Cl)c1 (centres unmarked) [Example 105] | -27% | –
4 | – | – | O=C1CC2(C(=O)N1)c1ccccc1S(=O)(=O)N2Cc1ccc(Br)cc1 (centres unmarked) [Example 106, 2-[(4-bromophenyl)methyl]-2,3-dihydrospiro[1,2-benzisothiazole-3,3'-pyrrol-idine]-2',5'-dione 1,1-dioxide] | -37% | –
5 | – | – | O=C1CC2(C(=O)N1)c1ccccc1S(=O)(=O)N2Cc1c(F)cccc1Cl (centres unmarked) [Example 110] | -17% | –
6 | – | – | CC(C)N1C2(CC(=O)NC2=O)c2ccccc2S1(=O)=O (centres unmarked) [Example 111] | – | % Change from vehicle (plasma glucose) (diabetic (db/db) mice; 87 mg/kg/day p.o. (gavage), Day 4 mean of 2 and 4 hour samples vs Day 1 baseline, difference from vehicle): -27%
7 | – | – | O=C1CC2(C(=O)N1)c1ccccc1C(=O)N2Cc1ccccc1 (centres unmarked) [Example 114] | -22% | –
8 | 82% | 45% | O=C1CC2(C(=O)N1)c1ccccc1C(=O)N2Cc1ccc(Cl)c(Cl)c1 (centres unmarked) [Example 115] | -21% | –
9 | 84% | 54% | O=C1CC2(C(=O)N1)c1ccccc1C(=O)N2Cc1ccc(Br)cc1F (centres unmarked) [Example 116, 2-[(4-bromo-2-fluorophenyl)methyl]spiro[1H-isoindole-1,3'pyrrolidine]-2',3,5'(2H)-trione] | -36% | % Lowering of dulcitol accumulation In Vivo, % D (diaphragm) (galactosemic rats; 101 mg/kg): 30%

Row | Structure (SMILES) | inhibition at 10 µM (aldose reductase; 10^-5 M) | inhibition at 1 µM (aldose reductase) | change in vivo at 100 mg/kg (diabetic (db/db) mice; [2]) | other results
10 | CN1C(=O)c2cc(Cl)c(Cl)cc2C12CC(=O)NC2=O (centres unmarked) [Example 122, 5,6-dichloro-2-methylspiro[1H-isoindole-1,3'-pyrrolidine]-2',3,5'(2H)-trione] | – | 83% | -31% | % Lowering of dulcitol accumulation In Vivo, % D (diaphragm) (galactosemic rats; 3 mg/kg): 25%; % Lowering of dulcitol accumulation In Vivo, % N (sciatic nerve) (galactosemic rats; 3 mg/kg): 20%; % Lowering of dulcitol accumulation In Vivo, % D (diaphragm) (galactosemic rats; 50 mg/kg): 90%; % Lowering of dulcitol accumulation In Vivo, % L (lens) (galactosemic rats; 50 mg/kg): 71%; % Lowering of dulcitol accumulation In Vivo, % N (sciatic nerve) (galactosemic rats; 50 mg/kg): 94%; inhibition at 10 µM (aldose reductase): 94%
